Three compounds from patent publication US20170281799A1, “SYSTEMS AND METHODS FOR SCREENING OTOTOXIC, OTOPROTECTIVE, AND OTOREGENERATIVE COMPOUNDS USING AQUATIC MODELS” (ARIZONA BOARD OF REGENTS ON BEHALF OF THE UNIVERSITY OF …, priority 2014, published 2017) can be followed below.

“Also recorded” adds a separate entry of the source.

Data set [1] concerns zebrafish. Description: Behavioral assay: rheotaxis in swimming test apparatus. Format: in vivo, Danio rerio. The text has this:
The custom-built behavioral apparatus consists of 6 experimental lanes with laminar flow velocity controlled at 0.15 cm/sec, allowing the simultaneous testing of up to 6 differing experimental conditions. Each lane measures 10.2 cm in height×9.9 cm in width×25.4 cm in length. Lanes are partitioned with metal mesh dividers to contain fish in one central area, measuring 5.0 cm length×9.9 cm width, allowing for image capture (FIG. 3). E2 medium flows from a header tank through the experimental lanes to a media reserve tank and is then recycled via pump back to the header tank. The pump is used to overdrive a header standpipe, resulting in constant pressure that is split evenly between the lanes, controlling the flow. A heater located in the reserve media tank maintains temperature at 28±0.5° C. Total system volume capacity (experimental apparatus+header and reserve tanks) is approximately 210 L, while operating volume is 152 L. The flow is calibrated as follows: lane width (9.9 cm)×total number of lanes (6)×operational water height (5.8 cm)×desired flow (0.15 cm/sec)=flow rate of 51.7 cubic centimeters/seconds. Water traveling from experimental lanes to the reserve media tank is received in a 1000 mL beaker and the rate of water flow is adjusted until it takes 19.3 seconds to fill the beaker to 1000 mL. Flow speed is calibrated before every experiment. With the system calibrated, flow may then be turned on or off via a separate valve, without any further adjustments.
The experimental system is housed in a cabinet creating a condition free of ambient light, thus negating any influence of visual input on zebrafish swimming behavior. Infrared light provides lighting from which images were acquired. Video capture is accomplished with under-mounted Samsung SCB-200 high-resolution video cameras (FIG. 3). In conducting the assay, five-day post fertilization (5 dpf) zebrafish are treated with several different experimental conditions (see below for detailed methods), rinsed three times in embryo medium, transferred to the experimental lanes, and the cabinet is then closed for 30 minutes to allow for dark adaptation. Image acquisition begins with 2 minutes of filming under no-flow conditions, next the water flow is turned on and the fish are allowed 1 minute to acclimate to the flow and then 2 minutes of flow behavior is recorded (FIG. 4).
Rheotaxis was defined as fish oriented headfirst, with an axial alignment within 30 degrees on either side of the directional flow vector and attempting to swim into the current. […] From the still images, the angle of every fish was measured using ImageJ and placed into an Excel spreadsheet for data processing (FIG. 6). […] Therefore, there were no negative values or angles measured between 181-360 degrees. […]

Data set [2] deals with zebrafish. Description: Rheotaxis behavior with next generation video imaging and semi-automated image analysis. In kind it is in vivo, Danio rerio. The text has this: Sulforaphane, a naturally occurring molecule within the isothiocyanate group of organosulfur compounds, is present within cruciferous vegetables such as broccoli. Low doses of SF induce production of antioxidant enzymes such as glutathione transferases, UDP-glucuronyltransferase, NAD(P)H:quinone oxidoreductase I and heme oxygenase-1 (HO-1) via NRF2 mediated activation of ARE promoters upstream from their genes—thereby allowing a diverse array of electrophilic and oxidative toxicants to be eliminated in a coordinated manner. Four-and-half dpf larvae were incubated in sulforaphane at a concentration of 10 μM for 12 hours and subsequently incubated for 4 hours in 1000 μM cisplatin (SF10/Cis 1000). An SF-alone (SF10/Cis 0) group and DMSO vehicle controls (DMSO/Cis 1000; DMSO/Cis 0) were also tested. To assess the otoprotective effects of SF on hair cell anatomy, aggregate neuromast damages were determined for each treatment group.

Data set [3] relates to lateral line hair cells. Description: Anatomical assay: YO-PRO1 staining, aggregate neuromast damage score. The following applies: for Anatomical Assay Damage Score (Mean ± S.D.): score 0-21 per fish. The method, then:
Following the drug exposure (see below for detailed methods), larvae were fluorescently stained/labeled in embryo medium containing 6 μM YO-PRO1 (Invitrogen; Y3603) for 20 min. YO-PRO1 is a common vital dye used for staining viable lateral line hair cells in zebrafish (Coffin A B, et al., Zebrafish. 2010 March; 7(1):3-11; Ou H C, et al., Drug Discov Today. 2010 April; 15(7-8):265-71; Ou H C, et al., Hear Res. 2007 November; 233(1-2):46-53; Santos F, et al., Hear Res. 2006 March; 213(1-2):25-33). Concentration and duration were optimized for this purpose. After labeling, the larvae were rinsed three times in embryo media and then anesthetized using 0.5 mM of MS-222 (Tricaine Methanesulfonate, Western Chemical Inc.) (Buck L M, et al., Hear Res. 2012 February; 284(1-2):67-81). The larvae were fixed in 2% paraformaldehyde for 1 hour at room temperature and stored in PBS overnight at 4° C. Fixed larvae were then mounted in 6% methylcellulose (Sigma; M7140) in 0.2 mm silicone chambers and covered with No. 1.5 cover glass (Warner Instruments; 64-0718) for confocal microscopy. Larvae were observed under a confocal microscope (Leica SP5) using 20× dry and 40× oil immersion lenses.
Treatment groups consisted of 3-7 fish. Seven ventral neuromasts of the posterior lateral line (P3, P4, P5, P6, P7, P8, and P9) were selected for determination of the “neuromast damage score” per fish (FIG. 1). Each neuromast was scored from 0 to 3. A score of 0 represents no damage with normal staining; 1 represents mild damage with moderate staining; 2 represents severe damage with poor staining; 3 represents total hair cell/neuromast destruction with no staining (FIG. 2). Seven scores per fish were then added to generate the total “aggregate neuromast damage score.” The lowest possible score for an individual fish is 0, representing no damage, with the highest possible score for a fish being 21, representing complete damage. Separate individuals (scorer A, B and C) were trained in the counting technique and “neuromast damage scores” were generated independently with blinding of experimental conditions to insure unbiased assessment. The mean score of the three evaluators was used to determine the final “neuromast damage score.” Inter-scorer variation was validated by using the Pearson's correlation coefficient.
In order to establish the sensitivity of the newly developed behavior assay for detecting damage caused by varying doses of cisplatin, a cisplatin dose-dependent exposure experiment was prepared. Cisplatin solutions were prepared from powder (Sigma; P4394) in embryo medium. Five dpf larvae were incubated in cisplatin at concentrations of 0, 250, 500, 750, or 1000 μM (Cis 0, Cis 250, Cis 500, Cis 750, and Cis 1000, respectively) for 4 hours at room temperature or 28±0.5° C. then rinsed 3 times in embryo media.
In order to assess the effect of dexamethasone on cisplatin-induced ototoxicity using the behavior/anatomical assay technique, dexamethasone pre-exposure groups were prepared. Dexamethasone (Sigma; D4902) stock solution (25 mg/ml) was prepared with DMSO (Dimethyl Sulphoxide, Sigma; D2650) and diluted with embryo medium. Four-and-half dpf larvae were incubated in dexamethasone at a concentration of 5 μM for 12 hours at 28.5±0.5° C. and subsequently rinsed in embryo media. Four-and-half dpf fish were used to allow for a half-day of maturation to ensure all fish would be 5 dpf at time of behavioral/anatomical testing. […]

Where [4] appears, read: dexamethasone 5 μM 12 hours alone, no cisplatin.
[5] abbreviates: dexamethasone 5 μM pre-exposure 12 hours, then cisplatin 1000 μM 4 hours.

In the case of `N.N.[Cl][Pt][Cl]` [Cis, cisplatin], the “rheotaxis performance versus cisplatin dosage (in words)” value in data set [1] (in vivo) is “clear linear correlation was found between increasing cisplatin dosage and decreased rheotaxis performance”. Besides, the rheotaxis index in data set [2] (cisplatin 1000 μM, new image analysis techniques, controls >85%) was determined as 45%.

As for `C[C@@H]1C[C@H]2[C@@H]3CCC4=CC(=O)C=C[C@]4(C)[C@@]3(F)[C@@H](O)C[C@]2(C)[C@@]1(O)C(=O)CO` [Dex, dexamethasone], the “hair cell damage caused by dexamethasone alone (in words)” value in data set [3] (Dex 5/Cis 0) is “no hair cell damage; also recorded: no statistically significant difference between Cis 0 and Dex 5/Cis 0”. Moreover, the entries for the “Anatomical Assay Damage Score (Mean ± S.D.)” value in data set [3] (setting [4]) and in data set [3] (setting [5]) were 2.40 ± 0.64 and 5.20 ± 1.53, respectively. Moreover, the “damage by dexamethasone-alone treatment, rheotaxis (in words)” value in data set [1] (Dex 5/Cis 0) is reported as “No damage was induced”. Besides, the “Behavioral Assay Rheotaxia Index (%) (Mean ± S.D.)” value was determined as 35.6 ± 12.5% in data set [1] (setting [4]) and 25.5 ± 5.2% in data set [1] (setting [5]).

On to `C[S+]([O-])CCCCN=C=S` (centres unmarked) [sulforaphane], for which, in data set [3] (SF10/Cis 0: 10 μM, 12 hours), the “hair cell damage caused by sulforaphane alone (in words)” value is “caused no hair cell damage”. Besides, the “rescue of hair cell architecture against cisplatin (in words)” value in data set [3] (SF10/Cis 1000: 10 μM 12 hours, then 1000 μM cisplatin 4 hours) is given as “partial rescue of hair cell architecture”. For the same compound, in data set [2] (SF10/Cis 1000), the “effect of pre-exposure on rheotaxis after cisplatin (in words)” value is recorded as “dramatically improved the ability of fish to perform rheotaxis”.
